In this test the target is T1, recombinant human PKM2 (Homo sapiens, UniProt P14618).
T1 construct: His (N); purchased R&D Systems
Put plainly: Human PKM2 activation assay (Kinase-Glo Plus luminescent detection of generated ATP). The test is classed as biochemical. The note with it: for Emax: read-out: hPKM2 Emax; for EC50: 4-parameter logistic fit. Summed up: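 N-His-tagged recombinant hPKM2 ([…]) with PEP and ADP was incubated with compound for 60 min at 26 °C, shaking, in 50 mM imidazole, 50 mM KCl, 7 mM MgCl2, 0.01% Tween20, 0.05% BSA, pH 7.2. ATP produced was read by Kinase-Glo Plus luminescence after 15 min.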
On the technique in general: Kinase-Glo measures the ATP left after a reaction by luminescence.

Setting [1] is: percentage activation normalised to DMSO vehicle (LOW) and 5 μM TEPP-46 (HIGH).
[2] abbreviates: recombinant human PKM2 activation, read-out: hPKM2 EC50.

Experimental findings from patent publication US20260152487A1 (Sitryx Therapeutics Limited, priority 2021, published 2026) are described below.

Molecules are shown by their SMILES. Read-outs that look alike come from different tables or passages of the source.

T1 sequence (P14618 2-531 limits assumed): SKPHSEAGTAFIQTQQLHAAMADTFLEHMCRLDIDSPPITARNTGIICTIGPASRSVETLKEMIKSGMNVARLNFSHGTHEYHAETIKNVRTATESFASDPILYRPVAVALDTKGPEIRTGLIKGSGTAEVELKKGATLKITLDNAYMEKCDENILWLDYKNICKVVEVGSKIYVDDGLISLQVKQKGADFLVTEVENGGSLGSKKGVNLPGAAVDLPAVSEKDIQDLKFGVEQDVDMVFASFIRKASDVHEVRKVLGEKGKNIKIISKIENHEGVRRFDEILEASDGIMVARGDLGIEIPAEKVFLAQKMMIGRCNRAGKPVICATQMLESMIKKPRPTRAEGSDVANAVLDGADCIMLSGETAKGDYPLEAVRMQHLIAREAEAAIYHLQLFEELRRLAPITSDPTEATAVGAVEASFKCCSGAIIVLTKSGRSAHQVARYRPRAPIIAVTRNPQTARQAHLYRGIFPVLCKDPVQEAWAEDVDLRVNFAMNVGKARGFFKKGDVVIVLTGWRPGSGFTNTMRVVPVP

Take `COc1ccc(Cn2ncc3cc(S(=O)(=O)c4cnc(OC)cn4)ccc3c2=O)cn1` [Example 177, 6-(5-methoxypyrazin-2-ylsulfonyl)-2-((6-methoxypyridin-3-yl)methyl)phthalazin-1(2H)-one]: the Emax (usually the greatest response seen or fitted, relative to the assay's reference) under setting [1] was 79%. Moreover, the EC50 (in general, the concentration needed to bring the measured effect to its halfway point) under setting [2] amounted to 209 nM.

`COc1ccc(Cn2ncc3cc(S(=O)(=O)c4ccn(C(F)F)n4)ccc3c2=O)cn1` [Example 179, 6-(1-(difluoromethyl)-1H-pyrazol-3-ylsulfonyl)-2-((6-methoxypyridin-3-yl)methyl)phthalazin-1(2H)-one]: the Emax under setting [1] came to 89.7%. For the same compound, the EC50 under setting [2] is 56.1 nM.

In the case of `COc1ccc(Cn2ncc3cc(S(=O)(=O)c4ccc5c(c4)OCCO5)ccc3c2=O)cn1` [Example 182, 6-((2,3-dihydrobenzo[b][1,4]dioxin-6-yl)sulfonyl)-2-((6-methoxypyridin-3-yl)methyl)phthalazin-1(2H)-one], the Emax under setting [1] turned out to be 80.2%. Further, under setting [2], the EC50 is 15.2 nM.

With `COc1ccc(Cn2ncc3cc(S(=O)(=O)c4cnc5c(c4)CCO5)ccc3c2=O)cn1` [Example 183, 6-((2,3-dihydrofuro[2,3-b]pyridin-5-yl)sulfonyl)-2-((6-methoxypyridin-3-yl)methyl)phthalazin-1(2H)-one], the Emax under setting [1] was 79.7%. The EC50 under setting [2] was 47.2 nM.

On to `COc1ccc(Cn2ncc3cc(S(=O)(=O)c4ccn5ccnc5c4)ccc3c2=O)cn1` [Example 184, 6-(imidazo[1,2-a]pyridin-7-ylsulfonyl)-2-((6-methoxypyridin-3-yl)methyl)phthalazin-1(2H)-one], for which, under setting [1], the Emax came out at 59.6%. Under setting [2], the EC50 came to 638 nM.

As to `COc1ccc(Cn2ncc3cc(S(=O)(=O)c4cn(C)c(C)n4)ccc3c2=O)cn1` [Example 185, 6-(1,2-dimethyl-1H-imidazol-4-ylsulfonyl)-2-((6-methoxypyridin-3-yl)methyl)phthalazin-1(2H)-one], the Emax under setting [1] was found to be 66%. Besides, under setting [2], the EC50 was determined as 739 nM.

As to `COc1ccc(Cn2ncc3cc(S(=O)(=O)c4cnn(C)c4C)ccc3c2=O)cn1` [Example 190, 6-(1,5-dimethyl-1H-pyrazol-4-ylsulfonyl)-2-((6-methoxypyridin-3-yl)methyl)phthalazin-1(2H)-one], under setting [1], the Emax was 102%. The EC50 under setting [2] was determined as 225 nM.

`COc1ccc(Cn2ncc3cc(S(=O)(=O)c4cn[nH]c4)ccc3c2=O)cn1` [Example 197, 6-((1H-pyrazol-4-yl)sulfonyl)-2-((6-methoxypyridin-3-yl)methyl)phthalazin-1(2H)-one]: the Emax amounted to 94.5%. In addition, the EC50 (hPKM2 EC50, recombinant human PKM2 activation) came to 153 nM.

Take `Cn1ccc(S(=O)(=O)c2ccc3c(=O)n(Cc4cccc(OC(F)F)c4)ncc3c2)n1` [Example 198, 2-(3-(difluoromethoxy)benzyl)-6-((1-methyl-1H-pyrazol-3-yl)sulfonyl)phthalazin-1(2H)-one]: the Emax under setting [1] came to 74%. In addition, under setting [2], the EC50 came to 100 nM.

For the compound `COc1ccc(F)c(Cn2ncc3cc(S(=O)(=O)c4ccn(C)n4)ccc3c2=O)c1` [Example 199, 2-(2-fluoro-5-methoxybenzyl)-6-((1-methyl-1H-pyrazol-3-yl)sulfonyl)phthalazin-1(2H)-one], the Emax under setting [1] was determined as 91.4%. The EC50 under setting [2] turned out to be 109 nM.

For `Cn1cc(S(=O)(=O)c2ccc3c(=O)n(Cc4cccnc4O)ncc3c2)cn1` [Example 200, 2-((2-hydroxypyridin-3-yl)methyl)-6-((1-methyl-1H-pyrazol-4-yl)sulfonyl)phthalazin-1(2H)-one], the Emax under setting [1] came out at 80.2%. Besides, the EC50 under setting [2] was 621 nM.

For `Cc1cccc(Cn2ncc3cc(S(=O)(=O)c4cnn(C)c4)ccc3c2=O)n1` [Example 204, 6-((1-methyl-1H-pyrazol-4-yl)sulfonyl)-2-((6-methylpyridin-2-yl)methyl)phthalazin-1(2H)-one], the Emax under setting [1] came out at 122%. Further, the EC50 under setting [2] is 282 nM.
